Measured values published in paper PMC6562610, “Inhibition of Hedgehog Signaling in Fibroblasts, Pancreatic, and Lung Tumor Cells by Oxy186, an Oxysterol Analogue with Drug-Like Properties” (Cells, 2019).
Entries after “also recorded” stand apart in the source; their conditions may differ.

What was measured:
A549 cells = assay: Cell counting assay, A549; type: cell-based, human; details: 96 h
Protocol: A549 and H2030 cells cultured in 12-well plates at 20% confluence were treated with Oxy186, HPI-1, Gant61, or GDC0449 for 96 hours and then trypsinized and suspended in fresh medium. An aliquot of cell suspension was applied to a hemocytometer and counted under a microscope.
Figure 6 Inhibition of human pancreatic and lung cancer cell proliferation by Oxy186. (a,c) A549, (b) and (d) H2030, (e) PANC-1, and (f) CAPAN-1 cells were treated with the compounds as indicated in RPMI 1640 (a–d) or DMEM (e,f) containing 5% FBS for 96 h and then were trypsinized and counted. Data from a representative experiment are reported as the mean of triplicate determinations ± SD (* p < 0.05 vs. Control; ** p < 0.01 vs. control).

[1] = tested on: Shh expression in CAPAN-1 cells; assay: Inhibition of Shh expression in CAPAN-1 cells, Q-RT-PCR; type: cell-based, human; details: 72 h
Text: (§1) NIH3T3-E1 fibroblasts were obtained from ATCC (Manassas, VA) and cultured, as previously described. CAPAN-1 and PANC-1 human pancreatic cancer cells were obtained from ATCC and cultured in Dulbecco’s Modified Eagle Medium (DMEM) containing 10% heat-inactivated fetal bovine serum (FBS) (Hyclone Laboratories, Logan, UT, USA) and antibiotics, as previously described. The human lung cancer cell lines A549 and H2030 were obtained from ATCC and cultured in RPMI-1640 containing 10% FBS. The human hepatoma cell line HepG2 was obtained from ATCC and cultured in DMEM containing 10% FBS. Mouse embryonic fibroblasts (MEFs) from suppressor of fused (Sufu) null mice (Sufu^−/−) were provided by Dr. Philip Beachy of Stanford University and cultured in DMEM containing 10% FBS. Gant61, SB431542 and vismodegib (GDC0449) were obtained from Cayman Chemical, HPI-1 was obtained from Abcam. For experiments, cells were treated in a medium containing 5% FBS.
Total RNA was extracted with the RNeasy Plus Mini Kit from Qiagen, according to the manufacturer’s instructions. One microgram of RNA was reverse-transcribed using an iScript Reverse Transcription Supermix from Bio-Rad, to make single-stranded cDNA. The cDNAs were then mixed with Qi SYBR Green Supermix (Bio-Rad, Hercules, CA, USA) for quantitative RT-PCR assay using a Bio-Rad I-cycler IQ quantitative thermocycler. All PCR samples were prepared in triplicate wells in a 96-well plate. […] Fold changes in gene expression were calculated using the ΔΔCt method. […]
Figure 4 Inhibition of Gli and Shh expression in (a) PDAC (PANC-1) and (b,c) human lung cancer cells (A549 and H2030, respectively) by Oxy186. Cells were treated with the compounds as indicated in DMEM or RPMI 1640 containing 5% FBS for (a) 48 or (b,c) 72 hours, then RNA was extracted and analyzed by Q-RT-PCR for the expression of Gli1 and normalized to GAPDH expression. (d) CAPAN-1 cells were treated with the compounds, as indicated, in DMEM containing 5% FBS for 72 h, then RNA was extracted and analyzed by Q-RT-PCR for the expression of Shh and normalized to GAPDH expression. […]

[2] = tested on: Hh target gene Gli1 expression in NIH3T3-E1 cells; assay: Inhibition of CAPAN-1 conditioned medium (ligand)-induced Gli1 mRNA expression, Q-RT-PCR; type: cell-based; details: 72 h
Text: as §1
Growth medium in confluent […] tissue culture plates of CAPAN-1 cells were replaced with 10 ml of fresh growth medium and cells were incubated for a total of 7 days. Conditioned medium (CM), containing Shh and Ihh, was collected and spun down to remove any detached cells and debris, aliquoted, and stored frozen at −80 °C [37].
Total RNA was extracted with the RNeasy Plus Mini Kit from Qiagen, according to the manufacturer’s instructions. One microgram of RNA was reverse-transcribed using an iScript Reverse Transcription Supermix from Bio-Rad, to make single-stranded cDNA. The cDNAs were then mixed with Qi SYBR Green Supermix (Bio-Rad, Hercules, CA, USA) for quantitative RT-PCR assay using a Bio-Rad I-cycler IQ quantitative thermocycler. […] Fold changes in gene expression were calculated using the ΔΔCt method. […]
Figure 3 Inhibition of ligand-induced Hedgehog signaling. […] After 72 h, RNA was extracted and analyzed by Q-RT-PCR for the expression of Hh target genes Gli1 (a,b,d) and Ptch1 (c), and normalized to Oaz1 expression. […] Luciferase activity was measured and normalized to the Renilla luciferase activity. […]

C[C@]12CC[C@H](O)C[C@@H]1CC[C@@H]1[C@@H]2CC[C@@]2(C)[C@H]1CC[C@@H]2[C@](C)(O)CCc1ccc(F)cc1 [Oxy186, (3S,5S,8R,9S,10S,13S,14S,17S)-17-((R)-4-(4-fluorophenyl)-2-hydroxybutan-2-yl)-10,13-dimethylhexadecahydro-1H-cyclopenta[a]phenanthren-3-ol]
Inhibition of cell proliferation (A549 cells; 10 µM): significantly inhibited | IC50 (A549 cells; Homo sapiens, read-out: IC50 for inhibition of cell proliferation): 5000 nM | Inhibition of Shh expression [1]: robustly inhibited; also recorded: significant inhibition | Inhibition of ligand-induced Gli1 mRNA expression ([2]; NIH3T3-E1 cells, CAPAN-1 CM): robustly inhibited; also recorded: greater Hh signaling inhibitory efficacy than Oxy16 | IC50 ([2]; NIH3T3 cells activated by CAPAN-1 CM Hh ligands): 600 nM
